# Experiments:
# Digitaria ciliaris [1] = test: Herbicidal activity, soil spray on day of sowing, pot test in greenhouse, evaluated after seven days (Example 2); assay type: in vivo; conditions: 20 g/ha; sprayed on day of sowing; seven days after spray treatment; scale 0 to 100
# Procedure: (§1) Digitaria ciliaris was sowed on a plastic pot filled with a soil. Following the sowing, on the day of the sowing, a mixed liquid of flumioxazin, pyrasulfotole, and mefenpyr-diethyl was sprayed uniformly so that the amounts of the agents might become those shown in Table 2 in a sprayed water amount of 500 L/ha. The mixed liquid of flumioxazin, pyrasulfotole, and mefenpyr-diethyl was prepared by dissolving the respective compounds in prescribed amounts separately in acetone containing 2% (w/v) of Tween 20 (surfactant, produced by Tokyo Chemical Industry Co., Ltd.), diluting the respective solutions with water and then combining them, followed by dilution with water so that the final acetone concentration of the spray liquid might be 10% by volume. After the spray treatment, the pot was carried into a greenhouse. Seven days after the spray treatment, the herbicidal activity to Digitaria ciliaris was evaluated.
# Digitaria ciliaris [2] = test: Herbicidal activity, soil spray on day of sowing, pot test in greenhouse, evaluated after ten days (Example 3); assay type: in vivo; conditions: 2 g/ha; sprayed on day of sowing; ten days after spray treatment; scale 0 to 100
# Procedure: as §1, with “those as” for “those”, “Table 3” for “Table 2”, “greenhouse. Ten” for “greenhouse. Seven”
smiles,measurement,setting,value
C#CCN1C(=O)COc2cc(F)c(N3C(=O)C4=C(CCCC4)C3=O)cc21 [Flumioxazin],Herbicidal activity Digitaria ciliaris,Digitaria ciliaris [1],10
same,Herbicidal activity Digitaria ciliaris,Digitaria ciliaris [2],40

# From patent publication US8932986B2, “Herbicidal composition” (Sumitomo Chemical Company, Limited, priority 2012, dated 2015)
